Data published in PubChem BioAssay (NCI).
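Tested at 5 concentrations; 48 h exposure; 96-well plates; endpoints linearly interpolated, else capped at highest concentration. TGI marks complete inhibition of growth.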

How the values were obtained:
Test in all cases: inhibition of tumour cell growth, NCI panel, 48 h
SK-MEL-2 melanoma = system: SK-MEL-2 melanoma
CAKI-1 renal = system: CAKI-1 renal
LOX IMVI melanoma = system: LOX IMVI melanoma
EKVX NSCLC = system: EKVX NSCLC
HCT-15 colon = system: HCT-15 colon
SK-MEL-5 melanoma = system: SK-MEL-5 melanoma
PC-3 prostate = system: PC-3 prostate
SW-620 colon = system: SW-620 colon
NCI-H226 lung = system: NCI-H226 lung
DU-145 prostate = system: DU-145 prostate
OVCAR-4 ovarian = system: OVCAR-4 ovarian
T-47D breast = system: T-47D breast
BT-549 breast = system: BT-549 breast
RXF 393 renal = system: RXF 393 renal
K-562 leukemia = system: K-562 leukemia
HT29 colon = system: HT29 colon
SK-OV-3 ovarian = system: SK-OV-3 ovarian
HCC-2998 colon = system: HCC-2998 colon
TK-10 renal = system: TK-10 renal
MDA-MB-231 breast = system: MDA-MB-231 breast
SNB-75 CNS = system: SNB-75 CNS
SR leukemia = system: SR leukemia
786-0 renal = system: 786-0 renal
ACHN renal = system: ACHN renal
A498 renal = system: A498 renal
UACC-62 melanoma = system: UACC-62 melanoma
MDA-N = system: MDA-N
OVCAR-8 ovarian = system: OVCAR-8 ovarian
HOP-92 NSCLC = system: HOP-92 NSCLC
HOP-62 NSCLC = system: HOP-62 NSCLC
A549 NSCLC = system: A549 NSCLC
MDA-MB-435 = system: MDA-MB-435
SF-295 CNS = system: SF-295 CNS
NCI-H522 lung = system: NCI-H522 lung
MALME-3M melanoma = system: MALME-3M melanoma
NCI/ADR-RES ovarian = system: NCI/ADR-RES ovarian
M14 melanoma = system: M14 melanoma
UACC-257 melanoma = system: UACC-257 melanoma
UO-31 renal = system: UO-31 renal
KM12 colon = system: KM12 colon
U251 CNS = system: U251 CNS
CCRF-CEM leukemia = system: CCRF-CEM leukemia
NCI-H23 lung = system: NCI-H23 lung
NCI-H460 lung = system: NCI-H460 lung
OVCAR-3 ovarian = system: OVCAR-3 ovarian
SF-539 CNS = system: SF-539 CNS
RPMI-8226 leukemia = system: RPMI-8226 leukemia
SF-268 CNS = system: SF-268 CNS
HCT-116 colon = system: HCT-116 colon
SN12C renal = system: SN12C renal
OVCAR-5 ovarian = system: OVCAR-5 ovarian
MCF7 breast = system: MCF7 breast
SK-MEL-28 melanoma = system: SK-MEL-28 melanoma
IGROV1 ovarian = system: IGROV1 ovarian
COLO 205 colon = system: COLO 205 colon
HS 578T breast = system: HS 578T breast
SNB-19 CNS = system: SNB-19 CNS
HL-60(TB) leukemia = system: HL-60(TB) leukemia
MOLT-4 leukemia = system: MOLT-4 leukemia

`COc1ccc(OC)c(C(=O)/C=C/c2cc(O)c(O)cc2F)c1` gave a TGI (SK-MEL-2 melanoma) of 9.51 µM, a TGI (CAKI-1 renal) of 27.6 µM and a TGI (LOX IMVI melanoma) of 16.1 µM. For the same compound, the TGI (EKVX NSCLC) was > 77.4 µM, the TGI (HCT-15 colon) was 13.5 µM and the TGI (SK-MEL-5 melanoma) was 12.4 µM. The TGI (PC-3 prostate) was 17.1 µM, the TGI (SW-620 colon) was > 66.5 µM and the TGI (NCI-H226 lung) was 15.4 µM. The TGI (DU-145 prostate) was 15.1 µM, the TGI (OVCAR-4 ovarian) was > 90 µM and the TGI (T-47D breast) was > 100 µM. For the same compound, the TGI (BT-549 breast) was 19.6 µM, the TGI (RXF 393 renal) was 23.5 µM and the TGI (K-562 leukemia) was > 27.8 µM. The TGI (HT29 colon) was 29.3 µM, the TGI (SK-OV-3 ovarian) was > 67.5 µM and the TGI (HCC-2998 colon) was 1.98 µM. It also gave a TGI (TK-10 renal) of 21.6 µM, a TGI (MDA-MB-231 breast) of 11.4 µM and a TGI (SNB-75 CNS) of 28.2 µM. The TGI (SR leukemia) was 4.62 µM, the TGI (786-0 renal) was 17.6 µM and the TGI (ACHN renal) was > 50.3 µM. The TGI (A498 renal) was 12.5 µM, the TGI (UACC-62 melanoma) was 11.7 µM and the TGI (MDA-N) was 0.534 µM. The TGI (OVCAR-8 ovarian) was 24.3 µM, the TGI (HOP-92 NSCLC) was > 67 µM and the TGI (HOP-62 NSCLC) was 29.2 µM. The TGI (A549 NSCLC) was > 82.7 µM, the TGI (MDA-MB-435) was 0.99 µM and the TGI (SF-295 CNS) was 9.25 µM. The TGI (NCI-H522 lung) was 0.948 µM, the TGI (MALME-3M melanoma) was 27.4 µM and the TGI (NCI/ADR-RES ovarian) was > 89.5 µM. The TGI (M14 melanoma) was 19.7 µM, the TGI (UACC-257 melanoma) was 18.3 µM and the TGI (UO-31 renal) was 28.7 µM. It also gave a TGI (KM12 colon) of 13.8 µM, a TGI (U251 CNS) of 12.3 µM and a TGI (CCRF-CEM leukemia) of 15.7 µM. The TGI (NCI-H23 lung) was 10.4 µM, the TGI (NCI-H460 lung) was 9.27 µM and the TGI (OVCAR-3 ovarian) was 1.59 µM. For the same compound, the TGI (SF-539 CNS) was 0.626 µM, the TGI (RPMI-8226 leukemia) was 7.83 µM and the TGI (SF-268 CNS) was > 44.9 µM. It also gave a TGI (HCT-116 colon) of 11.5 µM, a TGI (SN12C renal) of 5.8 µM and a TGI (OVCAR-5 ovarian) of 38.9 µM. It also gave a TGI (MCF7 breast) of 14.3 µM, a TGI (SK-MEL-28 melanoma) of 35.8 µM and a TGI (IGROV1 ovarian) of 34.2 µM. For the same compound, the TGI (COLO 205 colon) was 31.7 µM, the TGI (HS 578T breast) was > 100 µM and the TGI (SNB-19 CNS) was > 35 µM.
Compound `C=C(C)[C@@H]1CC[C@]2(CO)CC[C@]3(C)[C@H](CC[C@@H]4[C@@]5(C)CC[C@H](O)C(C)(C)[C@@H]5CC[C@]43C)[C@@H]12` has a TGI (CAKI-1 renal) of 29 µM, a TGI (LOX IMVI melanoma) of 28.4 µM and a TGI (EKVX NSCLC) of 87.6 µM. For the same compound, the TGI (HCT-15 colon) was > 100 µM, the TGI (SK-MEL-5 melanoma) was 57.9 µM and the TGI (PC-3 prostate) was 84.3 µM. For the same compound, the TGI (SW-620 colon) was 43.5 µM, the TGI (NCI-H226 lung) was > 100 µM and the TGI (DU-145 prostate) was > 100 µM. The TGI (HL-60(TB) leukemia) was > 100 µM, the TGI (T-47D breast) was > 100 µM and the TGI (BT-549 breast) was 39.8 µM. For the same compound, the TGI (RXF 393 renal) was 25.9 µM, the TGI (K-562 leukemia) was > 100 µM and the TGI (HT29 colon) was 48.6 µM. The TGI (TK-10 renal) was 38 µM, the TGI (MDA-MB-231 breast) was > 100 µM and the TGI (SNB-75 CNS) was 28.9 µM. For the same compound, the TGI (SR leukemia) was > 100 µM, the TGI (786-0 renal) was 27.1 µM and the TGI (ACHN renal) was 25.6 µM. The TGI (A498 renal) was 61.9 µM, the TGI (MDA-N) was > 100 µM and the TGI (OVCAR-8 ovarian) was 60.1 µM. It also gave a TGI (HOP-92 NSCLC) of 41 µM, a TGI (HOP-62 NSCLC) of 42.1 µM and a TGI (A549 NSCLC) of 26.9 µM. For the same compound, the TGI (MDA-MB-435) was 57.1 µM, the TGI (SF-295 CNS) was 27.8 µM and the TGI (NCI-H522 lung) was 64.9 µM. For the same compound, the TGI (MALME-3M melanoma) was > 100 µM, the TGI (NCI/ADR-RES ovarian) was > 100 µM and the TGI (M14 melanoma) was > 100 µM. The TGI (UACC-257 melanoma) was 54.9 µM, the TGI (UO-31 renal) was 26 µM and the TGI (KM12 colon) was > 100 µM. For the same compound, the TGI (U251 CNS) was 24.1 µM, the TGI (CCRF-CEM leukemia) was > 100 µM and the TGI (NCI-H23 lung) was > 100 µM. For the same compound, the TGI (NCI-H460 lung) was > 100 µM, the TGI (OVCAR-3 ovarian) was 66.4 µM and the TGI (SF-539 CNS) was 33.8 µM. For the same compound, the TGI (SF-268 CNS) was > 100 µM, the TGI (HCT-116 colon) was > 100 µM and the TGI (SN12C renal) was 69.6 µM. The TGI (MOLT-4 leukemia) was > 100 µM, the TGI (OVCAR-5 ovarian) was > 100 µM and the TGI (MCF7 breast) was 45.5 µM. For the same compound, the TGI (SK-MEL-28 melanoma) was > 100 µM and the TGI (IGROV1 ovarian) was > 100 µM.
